From US20060193785A1, “Pharmaceutical aerosol formulations for pressurized metered dose inhalers comprising a sequestering agent” (priority 2005, published 2006)

Columns and labels:
[1] = TA 2005 stability in presence of sulphuric acid, upright Teflon-coated cans at 40° C.; type: physicochemical; settings: 0.075 M sulphuric acid in a concentration of 0.0018 to 0.0054% w/w
Description: A formulation of 8-hydroxy-5-[(1R)-1-hydroxy-2-[[(1R)-2-(4-methoxyphenyl)-1-methyl ethyl]amino]ethyl]-2(1H)-quinolinone hydrochloride (TA 2005) for delivering a nominal dose of 1 μg of active ingredient per actuation, was prepared with the following formulation: […]
The formulation (120 actuations/canister, overage of 30 actuations) was filled in aluminium canisters having the internal surface coated with Teflon and fitted with a metering valve having a 63 μl metering chamber.
A stability study was carried out by storing the formulation in upright cans at 40° C. The percent recovery of the active ingredient after one month of storage under these conditions is reported in the following: […]

[2] = Stability study of budesonide HFA solution formulation in anodized aluminium cans at 40° C. and 75% relative humidity; type: physicochemical
Description: A formulation for delivering a nominal dose of 200 μg of budesonide per actuation was prepared and filled in anodized aluminium canisters fitted with a metering valve having a 50 μl metering chamber.
A stability study was carried out by storing the formulation in upright (Up) and inverted (Inv) cans at 40° C. and 75% relative humidity. After three months of storage under these conditions the percent recovery of the active ingredient was very good. At the same time, the addition of small quantities of phosphoric acid appears to reduce the main oxidation degradation product, which is the 21-aldehyde content of the budesonide formulation.

Row | chemical stability [1] | effect of small quantities of phosphoric acid on 21-aldehyde content (main oxidation degradation product) [2] | Structure (SMILES)
1 | improved |  | COc1ccc(C[C@@H](C)NC[C@H](O)c2ccc(O)c3[nH]c(=O)ccc23)cc1.Cl [TA 2005, 8-hydroxy-5-[(1R)-1-hydroxy-2-[[(1R)-2-(4-methoxyphenyl)-1-methylethyl]amino]ethyl]-2(1H)-quinolinone hydrochloride]
2 |  | reduce | CCCC1O[C@@H]2C[C@H]3[C@@H]4CCC5=CC(=O)C=C[C@]5(C)[C@H]4[C@@H](O)C[C@]3(C)[C@]2(C(=O)CO)O1 (some centres unmarked) [Budesonide, budesonide]
